Experimental findings from patent US11938122B2, “5-[[4-[2-[5-(1-hydroxyethyl)pyridin-2-yl]ethoxy]phenyl]methyl]-1,3- thiazolidine-2,4-dione for treating nonalcoholic fatty liver disease” (Minoryx Therapeutics S.L., priority 2016, dated 2024) are described below.

This data set in a line: Stability in the hepatocyte incubation medium. The class given is in vitro ADME. The settings on record: 50 μM, 24-hour incubation. The procedure: The stability of MIN-102 in the incubation medium was assayed in parallel at the highest test concentration (50 μM) and quantified in incubation medium.

For `CC(O)c1ccc(CCOc2ccc(CC3SC(=O)NC3=O)cc2)nc1` (racemic) [MIN-102, 5-[[4-[2-[5-(1-hydroxyethyl)pyridin-2-yl]ethoxy]phenyl]methyl]-1,3-thiazolidine-2,4-dione], the “stability in incubation medium” value was “remained stable”.
